The values below come from US5686486A, “4-hydroxy-benzopyran-2-ones and 4-hydroxy-cycloalkyl[b]pyran-2-ones useful to treat retroviral infections” (priority 1995, dated 1997).

One may read the Ki as the equilibrium dissociation constant of an inhibitor or competing ligand from its target.

For assay [1], the target named is T1, HIV-1 protease (Human immunodeficiency virus type 1 group M subtype B, UniProt P04585). Kind of assay: biochemical. The note with it: read-out: HIV-1 FITC KI. The procedure: Determination of Ki values utilizes the same materials and equipment employed for percent inhibition studies. Two-fold serial dilutions are made for a given inhibitor from 2, 3 or 4 starting concentrations with a total of 24, 36 or 48 individual inhibitor concentrations. These dilutions are performed utilizing the BioMek robotics system. The assay consists of 10 μL of 40 nM HIV-1 protease, 10 μL of the various inhibitor concentrations, and 20 μL of 200 μM substrate (40 μL total). The reaction is allowed to proceed for 90 min at room temperature, terminated with 40 μL of avidin beads and processed (supra vide). An inhibitor with a known Ki is run in parallel to verify the validity of the assay. The data is processed utilizing a computer program employing a nonlinear least square analysis of the data to generate the Ki values.

For assay [2], the target named is T1, HIV-1 protease. Nature of the assay: biochemical. Particulars: for inhibition at 0.123 µM: read-out: HIV-1 Protease % Inhib, dose 0.123 uM; for inhibition at 0.37 µM: read-out: HIV-1 Protease % Inhib, dose 0.370 uM; for inhibition at 1.1 µM: read-out: HIV-1 Protease % Inhib, dose 1.100 uM; for inhibition at 3.3 µM: read-out: HIV-1 Protease % Inhib, dose 3.300 uM; for inhibition at 10 µM: read-out: HIV-1 Protease % Inhib, dose 10.000 uM; for inhibition at 30 µM: read-out: HIV-1 Protease % Inhib, dose 30.000 uM. A digest of the protocol:
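Biotinylated, FITC-labeled peptide substrate (20 μl of 0.2 μM) incubated with HIV-1 protease (10 μl of 0.1 μM) and compound in 0.1 M sodium acetate pH 5.5, 1.0 M NaCl, 0.05% NP-40, 1 h, room temperature, dark. Streptavidin beads then capture uncleaved substrate; filtered labeled product read by fluorescence, giving percent inhibition.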

As to `CCCC1CCCCCc2c1oc(=O)c([C@@H](c1ccccc1)C1CC1)c2O` (mixture of isomers) [Example 232, 3-(R)-(Cyclopropylphenylmethyl)-4-hydroxy-10-(R and S)-propyl-5,6,7,8,9,10-hexahydro-cycloocta[b]pyran-2-one], the Ki in assay [1] was 30 nM. Also, in assay [2], the inhibition at 0.123 µM was found to be 19.3%, the inhibition at 0.37 µM stood at 51.2%, the inhibition at 1.1 µM worked out at 80.4% and the inhibition at 3.3 µM came to 95.3%. Also, in assay [2], the inhibition at 10 µM was determined as 104% and the inhibition at 30 µM stood at 95%.
`CCCC1CCCCCc2c1oc(=O)c([C@H](c1ccccc1)C1CC1)c2O` (mixture of isomers) [Example 235, 3-(S)-(Cyclopropylphenylmethyl)-4-hydroxy-10-(R and S)-propyl-5,6,7,8,9,10-hexahydro-cycloocta[b]pyran-2-one]: the Ki in assay [1] turned out to be 11 nM. In assay [2], the inhibition at 0.123 µM came to 24.8%, the inhibition at 0.37 µM was determined as 71.8%, the inhibition at 1.1 µM is 92.7% and the inhibition at 3.3 µM came to 105%. In assay [2], the inhibition at 10 µM came out at 103% and the inhibition at 30 µM is 99.5%.
Take `O=c1oc2c(c(O)c1[C@H](c1cccc(NS(=O)(=O)c3ccc(Cl)cc3)c1)C1CC1)CCCCCC2` [Example 250, (-)-4-Chloro-N-[3-[cyclopropyl(5,6,7,8,9,10-hexahydro-4-hydroxy-2-oxo-2H-cycloocta[b]pyran-3-yl)methyl]phenyl]-benzenesulfonamide]: in assay [1], the Ki stood at 1.23 nM.
Still for that read-out and setting: the same measure for `O=c1oc2c(c(O)c1[C@@H](c1cccc(NS(=O)(=O)c3ccc(Cl)cc3)c1)C1CC1)CCCCCC2` [Example 251, (+)-4-Chloro-N-[3-[cyclopropyl(5,6,7,8,9,10-hexahydro-4-hydroxy-2-oxo-2H-cycloocta[b]pyran-3-yl)methyl]phenyl]-benzenesulfonamide]: 1.25 nM; for `N#Cc1ccc(S(=O)(=O)Nc2cccc([C@@H](c3c(O)c4c(oc3=O)CCCCCC4)C3CC3)c2)cc1` [Example 255, (-)-4-Cyano-N-[3-[cyclopropyl(5,6,7,8,9, 10-hexahydro-4-hydroxy-2-oxo-2H-cycloocta[b]pyran-3-yl)methyl]phenyl]-benzenesulfonamide]: 0.62 nM; for `O=c1oc2c(c(O)c1[C@H](c1cccc(NS(=O)(=O)/C=C/c3ccccc3)c1)C1CC1)CCCCCC2` [Example 257, (-)-N-[3-[Cyclopropyl(5,6,7,8,9,10-hexahydro4-hydroxy-2-oxo-2H cycloocta[b]pyran-3-yl)methyl]phenyl]-2-phenyl-[(E)]-ethenesulfonamide]: 3 nM.
The same measure, in the same setting: the same measure for `O=c1oc2c(c(O)c1[C@H](c1cccc(NS(=O)(=O)c3ccccc3)c1)C1CC1)CCCCCC2` [Example 258, (-)-N-[3-[Cyclopropyl(5,6,7,8,9,10-hexahydro4-hydroxy-2-oxo-2H-cycloocta[b]pyran-3-yl)methyl]phenyl]-benzenesulfonamide]: 7.6 nM; for `N#Cc1ccc(S(=O)(=O)Nc2cccc([C@H](c3c(O)c4c(oc3=O)CCCCCC4)C3CC3)c2)cc1` [Example 259, (+)4-Cyano-N-[3-[cyclopropyl(5,6,7,8,9,10-hexahydro4-hydroxy-2-oxo-2H-cycloocta[b]pyran-3-yl)methyl]phenyl]-benzenesulfonamide]: 0.71 nM; for `O=c1oc2c(c(O)c1[C@@H](c1cccc(NS(=O)(=O)/C=C/c3ccccc3)c1)C1CC1)CCCCCC2` [Example 261, (+)-N-[3-[Cyclopropyl(5,6,7,8,9,10-hexahydro-4-hydroxy-2-oxo-2H-cycloocta[b]pyran-3-yl)methyl]phenyl]-2-phenyl-[(E)]-ethenesulfonamide]: 3.1 nM.
`O=c1oc2c(c(O)c1[C@@H](c1cccc(NS(=O)(=O)c3ccccc3)c1)C1CC1)CCCCCC2` [Example 401, N-[3-[Cyclopropyl(5,6,7,8,9,10-hexahydro-4-hydroxy-2-oxo-2H-cycloocta[b]pyran-3-yl)methyl]phenyl]-(R)-benzenesulfonamide]: the inhibition constant Ki in assay [1] came to 2.3 nM.
